Measured values: patent US20260306460A1, “COMPOSITION FOR REMOVING AND INHIBITING SENESCENT CELLS, AND USES THEREOF” (LIFECEUTIX CO., LTD., priority 2023, published 2026)

Columns and labels:
SAOS-2 = experiment: Suppression of doxorubicin-senescent SAOS-2 tumors in nude mice, Example 19; assay type: in vivo, mouse; conditions: after DOX 10 mg/kg ip; 21 days daily; LX-5701 360 mg/kg po, LX-2101 20 mg/kg ip, LX-2102 10 mg/kg ip; DOX repeated as control
Description: Seven-week-old male BALB/c nude mice (KRIBB Laboratory Animal Resource Center) were acclimated to the experimental environment for one week, after which they were randomly assigned to experimental and control groups. Evaluation was performed using the same method as in Example 2-1 of WO2023-085787 A1. Cultured human osteosarcoma cell lines, SAOS-2 (10^6 cells), were mixed in phosphate-buffered saline (PBS) and administered subcutaneously to anesthetized mice using 2% isoflurane (Sigma). When the tumors reached approximately […], doxorubicin (10 mg/kg) was mixed in a 1:1 solution of distilled water and PBS (pH 7.2) and administered intraperitoneally to induce tumor senescence. After 10 days, LX-5701 mixed in PBS at a concentration of 360 mg/kg was administered orally daily for 21 days, or LX-2101 mixed in PBS solution with 5% DMSO at a concentration of 20 mg/kg or LX-2102 mixed in PBS with 5% DMSO at a concentration of 10 mg/kg was administered intraperitoneally daily for 21 days, and then the tumor size was measured. The control group was repeatedly administered a solution mixed with doxorubicin, and then the tumor size was measured.

[1] = system: carbon tetrachloride-induced liver fibrosis mice; experiment: Carbon tetrachloride-induced liver fibrosis mice, Example 31, Table 57; assay type: in vivo, mouse; conditions: CCl4-induced liver fibrosis mice, untreated = 100%
Method in brief: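 Mice with induced hepatic fibrosis received either the test compound or, as controls, an equal volume of vehicle solution alone. Once dosing ended, liver tissue was harvested and total RNA was isolated. cDNA was synthesized from this RNA, and quantitative RT-PCR was run on it to measure hepatic mRNA levels of the fibrosis- and senescence-related genes.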

[2] = system: HMGN1 secreted from senescent A549 cells; experiment: HMGN1 secretion (ELISA) from senescent A549 cancer cells, Example 12; assay type: cell-based, human; conditions: senescent untreated = 100%; 30 μM; 90 μM for LX-305, 905, 1302, 1601, 1603, 2003, 2702, 2901, 3106; 270 μM for LX-1103, 2005, 2007;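 also: A549 cells made senescent by doxorubicin exposure, with DMSO-treated cells serving as the non-senescent control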
Description: Cells were treated with doxorubicin or control (DMSO) and cultured.

naturally aged mice [3] = experiment: Anti-aging evaluation in naturally aged mice, Example 31, Table 55; assay type: in vivo, mouse;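 also: Vehicle-dosed control mice received solution alone at matching volume, values compare test-compound-treated aged mice against that control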
senescent foreskin cells = experiment: Survival of senescent human cells treated with supernatant (secreted fluid) from death-induced cells, Example 13; assay type: cell-based; conditions: Table 8; supernatant from dying senescent cells treated at 30, 90 or 270 μM (as Example 11); senescent treated cells
Description: After 3 days, cell viability was measured using CellTiter-Glo Luminescent Cell Viability Assay (Promega) or light microscopy.
During this additional culture, by checking with an optical microscope, etc., the medium supernatants containing secreted fluid from normally proliferating and senescent cells in which cell death was induced were obtained. The obtained medium supernatant was replaced with the medium of normally proliferating and senescent cells, respectively, and cell survival rate was measured after 3 days.

naturally aged mice [4] = experiment: Open field test in naturally aged mice, Example 15; assay type: in vivo, mouse; conditions: untreated aged = 100%; 5 days; doses as p16 mRNA
Description: (§1) In the same manner as in Example 7-1 of WO2023-085787 A1, naturally aged mice were administered LX-405 (5% DMSO in PBS solution, 10 mg/kg, intraperitoneal administration), LX-801 (PBS, 100 mg/kg, intraperitoneal administration), LX-1102 (0.5% CMC-Na solution, 100 mg/kg, oral administration), LX-1801 (PBS, 50 mg/kg, intraperitoneal administration), LX-2101 (0.5% CMC-Na solution, 10 mg/kg, intraperitoneal administration), and LX-3403 (mouse anti-PD-1 antibody (BioXcell), 100 μg, intraperitoneal administration) for 5 days under the following conditions. The control group was administered only the solution in the same volume. After drug administration was completed, the method described in each Example below was performed. The mouse was sacrificed in the same manner as Example 7-2 and 7-6 of WO2023-085787 A1. Total RNA was extracted from liver tissue, and qRT-PCR was performed and analyzed using synthesized cDNA. […] The mRNA amounts of p16, MMP3, and IL6 after natural aging were induced were calculated as 100% and compared them with the mRNA amounts of p16, MMP3, and IL6 after treatment with the test compound. Furthermore, an open field test was performed to analyze aging-related frailty in mice using the same method as Example 7-7 of WO2023-085787 A1. […] The amount of activity evaluated after inducing aging was calculated as 100% and compared it with the amount of activity evaluated after treatment with the test compound.

naturally aged mice [5] = experiment: p16, MMP3, IL6 mRNA in liver of naturally aged mice (qRT-PCR), Example 15; assay type: in vivo, mouse; conditions: untreated aged = 100%, 5 days
Description: as §1

[6] = system: bleomycin-induced pulmonary fibrosis mice; experiment: Bleomycin-induced pulmonary fibrosis mice, Example 31, Table 56; assay type: in vivo, mouse; conditions: untreated = 100%
Method in brief: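 Mice with bleomycin-induced pulmonary fibrosis, untreated or given test compound, with vehicle-only controls. Lung tissue collected for RNA extraction and qRT-PCR analysis.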

COc1cccc2c1C(=O)c1c(O)c3c(c(O)c1C2=O)C[C@@](O)(C(=O)CO)C[C@@H]3O[C@H]1C[C@H](N)[C@H](O)[C@H](C)O1 [DOX, doxorubicin]
Tumor Diameter (SAOS-2): 16.1 (±0.9) mm

Fc1ccc(-n2cc(CCCCN3CCC4(CC3)OCc3ccccc34)c3ccccc32)cc1 [LX-1102, Siramesine]
Liver p16 mRNA ([1]; liver): 76 (±2.8) %
Col1a1 mRNA [1]: 64 (±4.7) %
HMGN1 [2]: 324%
Femur Ctsk mRNA (naturally aged mice [3]; femur, untreated = 100%): 62%
Heart Sur2a mRNA (naturally aged mice [3]; heart, untreated = 1.0): 1.8 fold
Joint Col2a1 mRNA (naturally aged mice [3]; joint, untreated = 1.0): 1.7 fold
Kidney Agtr1a mRNA (naturally aged mice [3]; kidney, untreated = 100%): 80%
Liver IL6 mRNA (naturally aged mice [3]; liver, untreated = 100%): 74%
Liver MMP3 mRNA (naturally aged mice [3]; liver, untreated = 100%): 71%
Liver p16 mRNA (naturally aged mice [3]; liver, untreated = 100%): 58%
Open Field Test Time in Center (naturally aged mice [3]; open field test, untreated = 100%): 148%
Skin Col1a1 mRNA (naturally aged mice [3]; skin, untreated = 1.0): 2.5 Fold
Skin SDF1 mRNA (naturally aged mice [3]; skin, untreated = 1.0): 2.3 fold
Muscle Mass (naturally aged mice [3]; untreated 0.64 g): 0.65 g
Fat Mass (naturally aged mice [3]; untreated 0.82 g): 0.95 g
Cataract incidence (naturally aged mice [3]; untreated 83%): 77%
Survival (senescent foreskin cells): 52.9
Open Field Test Time in Center (naturally aged mice [4]): 163 (±7.9) %
p16 mRNA (naturally aged mice [5]; LX-405 10 mg/kg ip, LX-801 100 mg/kg ip, LX-1102 100 mg/kg po, LX-1801 50 mg/kg ip, LX-2101 10 mg/kg ip, LX-3403 100 μg ip): 75.2 (±5.5) %
IL6 mRNA (naturally aged mice [5]; doses as p16 mRNA): 84.5 (±8.9) %
MMP3 mRNA (naturally aged mice [5]; doses as p16 mRNA): 89.7 (±12.5) %
Lung p16 mRNA ([6]; lung): 59 (±3.9) %
Col1a1 mRNA [6]: 68 (±4.1) %
